Results on six compounds are retold here after ChEMBL document CHEMBL5614425, “Novel inhibitors of bromodomain and extra-terminal domain trigger cell death in breast cancer cell lines” (2024).

Bounds are passed on as bounds.

Assay [1] addresses T1, NAD-dependent protein deacetylase sirtuin-2 (Homo sapiens) (UniProt Q8IXJ6).
T1 sequence (whole entry): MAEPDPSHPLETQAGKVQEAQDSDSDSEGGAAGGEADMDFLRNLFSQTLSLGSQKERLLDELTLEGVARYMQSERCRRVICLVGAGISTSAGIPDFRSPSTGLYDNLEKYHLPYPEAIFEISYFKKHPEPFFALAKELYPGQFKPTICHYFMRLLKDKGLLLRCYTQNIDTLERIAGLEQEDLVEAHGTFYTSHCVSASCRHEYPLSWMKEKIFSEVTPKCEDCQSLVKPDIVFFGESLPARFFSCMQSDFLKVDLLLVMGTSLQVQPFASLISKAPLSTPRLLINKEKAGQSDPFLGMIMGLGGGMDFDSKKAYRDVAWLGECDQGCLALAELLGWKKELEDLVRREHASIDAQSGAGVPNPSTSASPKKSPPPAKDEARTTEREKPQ
As to the kind of experiment: Inhibition of SIRT2 (unknown origin) using IU179 as substrate incubated for 30 mins by Fluor de Lys sirtuin assay relative to control. Further details: concentration or dose not given beside the values.

Assay [2] concerns T47D. As to the kind of experiment: Antitumor activity against human T47D cell spheroids assessed as reduction in spheroid growth at 10 to 100 uM measured for >200 hrs by Image J analysis relative to control. The following applies: dose 10-100 µM. More on the design: scale not given: the % may be the effect or the level left. The assay is classed as functional.
Assay [3] concerns T47D. As to the kind of experiment: Antiproliferative activity against human T47D cells assessed as decrease in cell numbers at 10 to 100 uM incubated for 24 hrs by PI staining based analysis relative to control. It is filed as functional. More on the design: scale not given: the % may be the effect or the level left. The following applies: dose 10-100 µM.
In assay [4] the test system is T47D. As to the kind of experiment: Antitumor activity against human T47D cell spheroids assessed as reduction in spheroid growth at 100 uM measured for >200 hrs by Image J analysis relative to control. It is filed as functional. More on the design: scale not given: the % may be the effect or the level left.

For `NC(=O)C(NC(=O)CCCOc1ccc2c(c1)CCC(=O)N2)C(N)=O`, the inhibition (commonly the relative decrease from the control value, in per cent) in assay [1] was under 50%. `Cc1ccc(NC(=O)c2ccc(S(=O)(=O)N3CCCCCC3)cc2)c(C)c1` yielded an inhibition in assay [1] of under 50%. The Activity is about 20% with T47D [2], over 40% in the assay with T47D [3] and 100% in the assay on T47D [4]. `CC1CCCCN1S(=O)(=O)c1ccc(C(=O)Nc2ccc(N3CCOCC3)c3ccncc23)cc1` (centres undefined): the inhibition in assay [1] was found to be 84%. For the compound `COc1cc(/C=N/c2ccc(N3N=C(C)CC3=O)cc2)ccc1O`, in assay [1], the inhibition amounted to 50%. In assay [1], `CCOc1ccc(C(C)NC(=O)COc2ccc3c(c2)CCC(=O)N3)cc1` (centres undefined) showed an inhibition of under 50%. For the compound `Cc1cnc2c(c1)N(C(=O)COc1ccc(Cl)c(C)c1)CCC2`, the inhibition in assay [1] was under 50%.
